According to patent US5585277A, “Screening method for identifying ligands for target proteins” (Scriptgen Pharmaceuticals, Inc., priority 1995, dated 1996):

Legend:
[1] = tested on: Dihydrofolate Reductase (DHFR); assay: Protection of DHFR from Proteinase K digestion in the presence of a mixture of all 20 common amino acids, ELISA; format: binding; conditions: 10^-5M ligand, 10^-5M of all 20 common amino acids, DHFR 2.1 μg/ml, Proteinase K 80 μg/ml, 54° C., 5 minutes
Experimental: The following were combined and incubated at 54° C. for 5 minutes: DHFR (2.1 μg/ml), Proteinase K (80μg/ml), 0.1M Tris-HCl [pH 7.5], 10^-5M of all 20 common amino acids and either 0 or 10^-5M ligand.
(§1) Samples were removed and undigested DHFR was quantified by ELISA as follows:
(§2) (a) Protease incubations were diluted 50 fold with Tris-buffered saline (TBS);
(§3) (b) 50 μl diluted samples were transferred to the wells of an ELISA plate and incubated 60 minutes at room temperature;
(§4) (e) plate wells were washed as in (c) above;
(§5) (g) plate wells were washed as in (c); and […]

[2] = tested on: Dihydrofolate Reductase (DHFR); assay: Protection of DHFR from proteolytic digestion by Proteinase K, undigested DHFR quantified by ELISA; format: binding; conditions: same methods as Example 1, separate experiments, 54° C., 5 minutes
Experimental: as §1, §2, §3, §4, §5

NC(=O)C1=CN([C@@H]2O[C@H](COP(=O)(O)OP(=O)(O)OC[C@H]3O[C@@H](n4cnc5c(N)ncnc54)[C@H](OP(=O)(O)O)[C@@H]3O)[C@@H](O)[C@H]2O)C=CC1 [NADPH]
protection of DHFR from digestion relative to the absence of ligands [1]: Protects Dihydrofolate Reductase (DHFR) From Proteolytic Digestion
concentration at which ligand inhibits proteolysis of DHFR [2]: ≥ 10^-5
